In article PMC4160546, “Biotechnical paving of recombinant enterocin A as the candidate of anti-Listeria agent” (BMC Microbiology, 2014):
≈ marks a conversion by molar mass, not a printed value.

Experiments:
[1] = cited from earlier work
Procedure: The native EntA was stable at 100°C and acidic pH conditions. […] These properties were potentially due to the higher cysteine content of the antimicrobial peptides, similar to the EntA containing four cysteine residues. In addition, the antimicrobial activity of some bacteriocins (nisin, sakacin P and curvacin A) was si ...

L. ivanovii ATCC19119 [2] = assay: MIC and MBC, microtiter broth dilution method; type: cell-based; settings: Listeria ivanovii, triplicate
Procedure: Minimal inhibitory concentrations (MICs) and Minimum bactericidal concentrations (MBCs) assays were determined using the microtiter broth dilution method. Ampicillin was also tested with the same concentration gradient as a positive control. All tests were performed in triplicate.

L. ivanovii ATCC19119 [3] = assay: In-vitro killing curve (time-kill) assay; type: cell-based, Listeria ivanovii; settings: 2 × MIC, 10 h time-kill
Procedure: To evaluate the antibacterial activity of rEntA against L. ivanovii ATCC19119, a time-kill assay was performed as described by the methods of Mao [32]. In addition, tubes with only bacterial inoculum were used as growth controls. All experiments were performed in triplicate.

[4] = tested on: digestive proteases trypsin and pepsin; settings: cited from earlier work
Text: Similarly, the purified rEntA, with 12.76% basic amino acids and 10.63% aromatic amino acids, was inactivated with trypsin and pepsin (Figure 4C). This high sensitivity to digestive proteases of rEntA contributes to its safety in foods and drugs, during and after oral administration.

nisin: class I bacteriocin, widely used in commerce (ITSISLCTPGCKTGALMGCNMKTATCHCSIHVSK; not fully specified; Lantibiotic nisin-A; UniProt P13068 24-57, looked up)
effect of NaCl on antimicrobial activity ([1]; addition of NaCl from 0 to 1.17 M): significantly enhanced

CC1(C)S[C@@H]2[C@H](NC(=O)[C@H](N)c3ccccc3)C(=O)N2[C@H]1C(=O)O [ampicillin]
MBC (L. ivanovii ATCC19119 [2]): 1.56 µg/mL (≈ 4.46 µM)
MIC (L. ivanovii ATCC19119 [2]): 0.39 µg/mL (≈ 1.12 µM)
growth of survivors after MVL (L. ivanovii ATCC19119 [3]): resumed growth

pediocin PA-1: class IIa bacteriocin (KYYGNGVTCGKHSCSVDWGKATTCIINNGAMAWATGGHQGNHKC; UniProt P29430 19-62, looked up)
bactericidal activity and overall structure at higher temperatures [1]: well maintained
sensitivity to trypsin and pepsin [4]: very sensitive
